≈ marks a conversion by molar mass, not a printed value.
Assays:
[1] = target: human constitutive 20S proteasome (c20S) (Homo sapiens, UniProt P28074); experiment: 20S proteasome assay, chymotrypsin-like activity (succinyl-Leu-Leu-Val-Tyr-AMC), c20S; type: biochemical; details: LLVY substrate, 1 h continuous
From the text: (§1) Assay buffer consisted of TE buffer [20 mmol/L Tris (pH 8.0), 0.5 mmol/L EDTA] with (20S) or without (cell lysate) 0.03% SDS. Reactions were initiated by enzyme or lysate addition and monitored for AMC product formation at 27jC with a plate-based spectofluorometer (Tecan).

[2] = target: T1, proteasome subunit β5 (beta5) (Homo sapiens, UniProt P28074); experiment: Proteasome active-site ELISA (ProCISE), beta5, MOLT-4 lysate; type: biochemical; details: MOLT4 lysate, human, 1 h continuous treatment, 25° C.
T1 construct: Lysate from the human acute lymphoblastic leukemia cell line, MOLT-4; endogenous in cells; host or cells: MOLT-4
Outline: (§2)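 MOLT-4 cell lysate treated 1 h at 25 °C with compound; probe-bound subunits denatured, pulled down on streptavidin beads and detected with subunit-specific antibodies plus HRP chemiluminescence.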

Solubility pH 7 = details: pH 7, aqueous buffer
[3] = target: human 20S immunoproteasome (i20S) (Homo sapiens, UniProt P28062); experiment: 20S proteasome assay, chymotrypsin-like activity (succinyl-Leu-Leu-Val-Tyr-AMC), i20S; type: biochemical; details: LLVY substrate, 1 h continuous
From the text: as §1

[4] = target: T2, immunoproteasome subunit LMP7 (Homo sapiens, UniProt P28062); experiment: Proteasome active-site ELISA (ProCISE), LMP7, MOLT-4 lysate; type: biochemical; details: MOLT4 lysate, 1 h continuous treatment, 25° C.
T2 construct: Lysate from the human acute lymphoblastic leukemia cell line, MOLT-4; endogenous in cells; host or cells: MOLT-4
Outline: as §2

SMILES	IC50 [1] [nM]	IC50 [2] [nM]	solubility (Solubility pH 7) [µg/mL]	IC50 [3] [nM]	IC50 [4] [nM]
COc1ccc(C[C@H](NC(=O)[C@H](C)NC(=O)CN2CCOCC2)C(=O)N[C@@H](CC2=CCCC2)C(=O)[C@@]2(C)CO2)cc1 [Compound C-1009, (S)-N-((S)-3-(Cyclopent-1-en-1-yl)-1-((R)-2-methyloxiran-2-yl)-1-oxopropan-2-yl)-3-(4-methoxyphenyl)-2-((S)-2-(2-morpholinoacetamido)propanamido)propanamide]	351	926	2730 (≈ 4790 µM)	46.2	83.1
COc1ccc(C[C@H](NC(=O)[C@H](C)NC(=O)CC2CCOCC2)C(=O)N[C@@H](CC2CCCC2)C(=O)[C@@]2(C)CO2)cc1 [Compound C-1010, (S)-N-((S)-3-cyclopentyl-1-((R)-2-methyloxiran-2-yl)-1-oxopropan-2-yl)-3-(4-methoxyphenyl)-2-((S)-2-(2-(tetrahydro-2H-pyran-4-yl)acetamido)propanamido)propanamide]	119	695	185 (≈ 324 µM)	24.4	99.6
COc1ccc(C[C@H](NC(=O)[C@@H](C)NC(=O)CC2CCOCC2)C(=O)N[C@@H](CC2CCCC2)C(=O)[C@@]2(C)CO2)cc1 [Compound C-1011, (S)-N-((S)-3-cyclopentyl-1-((R)-2-methyloxiran-2-yl)-1-oxopropan-2-yl)-3-(4-methoxyphenyl)-2-((R)-2-(2-(tetrahydro-2H-pyran-4-yl)acetamido)propanamido)propanamide]	1550	6970	1120 (≈ 1950 µM)	98.8	556
C[C@H](NC(=O)CN1CCOCC1)C(=O)N[C@@H](Cc1ccc2c(c1)OCO2)C(=O)N[C@@H](CC1CCCC1)C(=O)[C@@]1(C)CO1 [Compound C-1012, (S)-3-(benzo[d][1,3]dioxol-5-yl)-N-((S)-3-cyclopentyl-1-((R)-2-methyloxiran-2-yl)-1-oxopropan-2-yl)-2-((S)-2-(2-morpholinoacetamido)propanamido)propanamide]	470	1280	1720 (≈ 2940 µM)	92.5	167
C[C@H](NC(=O)CN1CCOCC1)C(=O)N[C@@H](Cc1coc2ccccc12)C(=O)N[C@@H](CC1CCCC1)C(=O)[C@@]1(C)CO1 [Compound C-1015, (S)-3-(benzofuran-3-yl)-N-((S)-3-cyclopentyl-1-((R)-2-methyloxiran-2-yl)-1-oxopropan-2-yl)-2-((S)-2-(2-morpholinoacetamido)propanamido)propanamide]	506	1140	212 (≈ 364 µM)	167	498
COc1ccc(C[C@H](NC(=O)[C@H](C)NC(=O)CN2CCOCC2)C(=O)N[C@@H](CC2CCCC2)C(=O)[C@@]2(C)CO2)cc1O [Compound C-1018, (S)-N-((S)-3-cyclopentyl-1-((R)-2-methyloxiran-2-yl)-1-oxopropan-2-yl)-3-(3-hydroxy-4-methoxyphenyl)-2-((S)-2-(2-morpholinoacetamido)propanamido)propanamide]	656	1730	5840 (≈ 9910 µM)	170	184
COc1ccc(C[C@H](NC(=O)[C@@H](C)NC(=O)C2CCCC2)C(=O)N[C@@H](CC2CCCC2)C(=O)[C@@]2(C)CO2)cc1 [Compound C-1021, N-((R)-1-(((S)-1-(((S)-3-cyclopentyl-1-((R)-2-methyloxiran-2-yl)-1-oxopropan-2-yl)amino)-3-(4-methoxyphenyl)-1-oxopropan-2-yl)amino)-1-oxopropan-2-yl)cyclopentanecarboxamide]	3540	1900	19.3 (≈ 35.6 µM)	144	113
COc1ccc([C@@H](O)[C@H](NC(=O)[C@H](C)NC(=O)CN2CCOCC2)C(=O)N[C@@H](CC2CCCC2)C(=O)[C@@]2(C)CO2)cc1 [Compound C-1022, (2S,3R)-N-((S)-3-Cyclopentyl-1-((R)-2-methyloxiran-2-yl)-1-oxopropan-2-yl)-3-hydroxy-3-(4-methoxyphenyl)-2-((S)-2-(2-morpholinoacetamido)propanamido)propanamide]	729	1110	4050 (≈ 6880 µM)	115	85.1
C[C@H](NC(=O)CN1CCOCC1)C(=O)N[C@@H](Cc1ccc(S(C)(=O)=O)cc1)C(=O)N[C@@H](CC1CCCC1)C(=O)[C@@]1(C)CO1 [Compound C-1027, (S)-N-((S)-3-cyclopentyl-1-((R)-2-methyloxiran-2-yl)-1-oxopropan-2-yl)-3-(4-(methylsulfonyl)phenyl)-2-((S)-2-(2-morpholinoacetamido)propanamido)propanamide]	775	1050	5750 (≈ 9260 µM)	108	165
COc1ccc(C[C@H](NC(=O)[C@@H](C)NC(=O)C2CCOCC2)C(=O)N[C@@H](CC2CCCC2)C(=O)[C@@]2(C)CO2)cc1 [Compound C-1028, N-((R)-1-(((S)-1-(((S)-3-cyclopentyl-1-((R)-2-methyloxiran-2-yl)-1-oxopropan-2-yl)amino)-3-(4-methoxyphenyl)-1-oxopropan-2-yl)amino)-1-oxopropan-2-yl)tetrahydro-2H-pyran-4-carboxamide]	1010	807	215 (≈ 385 µM)	53.8	52.6
COc1ccc(C[C@H](NC(=O)[C@@H](C)NC(=O)C2CC(=O)C2)C(=O)N[C@@H](CC2CCCC2)C(=O)[C@@]2(C)CO2)cc1 [Compound C-1029, N-((R)-1-(((S)-1-(((S)-3-cyclopentyl-1-((R)-2-methyloxiran-2-yl)-1-oxopropan-2-yl)amino)-3-(4-methoxyphenyl)-1-oxopropan-2-yl)amino)-1-oxopropan-2-yl)-3-oxocyclobutanecarboxamide]	4110	3790	822 (≈ 1520 µM)	214	303
COc1ccc(C[C@H](NC(=O)[C@H](C)NC(=O)CN2CCOCC2)C(=O)N[C@@H](CC2CCCC2)C(=O)[C@H]2CO2)cc1 [Compound C-1030, (S)-N-((S)-3-cyclopentyl-1-((R)-oxiran-2-yl)-1-oxopropan-2-yl)-3-(4-methoxyphenyl)-2-((S)-2-(2-morpholinoacetamido)propanamido)propanamide]	201	497	220 (≈ 394 µM)	7.93	11.2
COc1ccc(C[C@H](NC(=O)[C@@H](C)NC(=O)[C@H]2C[C@H](O)C2)C(=O)N[C@@H](CC2CCCC2)C(=O)[C@@]2(C)CO2)cc1 [Compound C-1041, (1r,3R)-N-((R)-1-(((S)-1-(((S)-3-cyclopentyl-1-((R)-2-methyloxiran-2-yl)-1-oxopropan-2-yl)amino)-3-(4-methoxyphenyl)-1-oxopropan-2-yl)amino)-1-oxopropan-2-yl)-3-hydroxycyclobutanecarboxamide]	7030	12500	1830 (≈ 3360 µM)	232	440
COc1ccc(C[C@H](NC(=O)[C@H](C)NC(=O)CN2CCC(F)(F)CC2)C(=O)N[C@@H](CC2CCCC2)C(=O)[C@@]2(C)CO2)cc1 [Compound C-1046, (S)-N-((S)-3-cyclopentyl-1-((R)-2-methyloxiran-2-yl)-1-oxopropan-2-yl)-2-((S)-2-(2-(4,4-difluoropiperidin-1-yl)acetamido)propanamido)-3-(4-methoxyphenyl)propanamide]	361	198	152 (≈ 250 µM)	63.5	37.9
C[C@H](NC(=O)CN1CCOCC1)C(=O)N[C@@H](Cc1ccc(C(N)=O)cc1)C(=O)N[C@@H](CC1CCCC1)C(=O)[C@@]1(C)CO1 [Compound C-1049, 4-((S)-3-(((S)-3-cyclopentyl-1-((R)-2-methyloxiran-2-yl)-1-oxopropan-2-yl)amino)-2-((S)-2-(2-morpholinoacetamido)propanamido)-3-oxopropyl)benzamide]	305	796	3510 (≈ 5990 µM)	66.8	153
C[C@H](NC(=O)CN1CCOCC1)C(=O)N[C@@H](Cc1ccc(C#N)cc1)C(=O)N[C@@H](CC1CCCC1)C(=O)[C@@]1(C)CO1 [Compound C-1050, (S)-3-(4-cyanophenyl)-N-((S)-3-cyclopentyl-1-((R)-2-methyloxiran-2-yl)-1-oxopropan-2-yl)-2-((S)-2-(2-morpholinoacetamido)propanamido)propanamide]	277	765	1280 (≈ 2250 µM)	53.5	116
C[C@@H](NC(=O)C1CCOCC1)C(=O)N[C@@H](Cc1ccc(S(C)(=O)=O)cc1)C(=O)N[C@@H](CC1CCCC1)C(=O)[C@@]1(C)CO1 [Compound C-1051, N-((R)-1-(((S)-1-(((S)-3-cyclopentyl-1-((R)-2-methyloxiran-2-yl)-1-oxopropan-2-yl)amino)-3-(4-(methylsulfonyl)phenyl)-1-oxopropan-2-yl)amino)-1-oxopropan-2-yl)tetrahydro-2H-pyran-4-carboxamide]	978	705	702 (≈ 1160 µM)	45.1	90.8
